Measured values reported in PubChem BioAssay (NCI).
Several values for one entry are separate records, joined by “and”; a condition that tells them apart may be missing. Identical values can stand only once.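 Growth conditions: 96-well plates. Treatment: test compound, 48 hours, 5 concentrations. Analysis: linear interpolation between bracketing concentrations; unreached endpoints set to highest concentration. GI50 is the concentration that inhibits growth by half. TGI marks complete inhibition of growth.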 Where a SMILES comes first, the peptide text is derived from it. [ ]: non-standard residue; d: D form. The star is where a group is joined. ξ: configuration not given here. X16 = COC1=CC(=O)N(C(=O)C(O*)C(C)C)C1Cc1ccccc1; ξNMe2Val = CC(C)C(C(=O)*)N(C)C; NMeV = CN[CH](C(=O)O)C(C)C; hSer = N[CH](CCO)C(=O)O; Boc = CC(C)(C)OC(=O)*

Experiments:
Assay in all cases: NCI-60 cell line screen, 48 h
[1] = tested on: HL-60(TB) leukemia
[2] = tested on: HOP-92 NSCLC
[3] = tested on: LOX IMVI melanoma
[4] = tested on: NCI-H226 lung
[5] = tested on: NCI-H460 lung
[6] = tested on: SF-268 CNS
[7] = tested on: SK-MEL-5 melanoma
[8] = tested on: SNB-19 CNS
[9] = tested on: SW-620 colon
[10] = tested on: UO-31 renal

| Compound | TGI [1] | TGI [2] [µM] | TGI [3] [µM] | TGI [4] [µM] | TGI [5] [µM] | TGI [6] [µM] | TGI [7] [µM] | TGI [8] [µM] | TGI [9] [µM] | TGI [10] [µM] | GI50 [1] [µM] | GI50 [2] [µM] | GI50 [3] [µM] | GI50 [4] [µM] | GI50 [5] [µM] | GI50 [6] [µM] | GI50 [7] [µM] | GI50 [8] [µM] | GI50 [9] [µM] | GI50 [10] [µM] |
| --- | --- | --- | --- | --- | --- | --- | --- | --- | --- | --- | --- | --- | --- | --- | --- | --- | --- | --- | --- | --- |
| CC1=C/C(=C(\c2ccc(N(C)C)cc2)c2ccc([N+](C)(C)C)cc2)C=CC1=[N+](C)C | 5.93 µM | 30.6 | 17.7 | 33.8 | 22.4 | 26.3 | 24.5 | 89.4 | 46.3 | 78.1 | – | – | – | – | – | – | – | – | – | – |
| O=[N+]([O-])/C(C(Cl)=C(Cl)Cl)=C1\Nc2ccccc2O1 | 48.7 µM | 62.4 | > 100 | 59.7 | > 100 | > 100 | > 100 | > 100 | > 100 | 30.6 | – | – | – | – | – | – | – | – | – | – |
| Cc1c2c(n3c(nc4ccccc43)c1C#N)N(c1ccc(Cl)cc1)CC2 | > 100 µM | > 100 | > 100 | > 100 | > 100 | > 100 | > 100 | > 100 | > 100 | > 100 | – | – | – | – | – | – | – | – | – | – |
| O=C1N[C@H]2c3c(Cl)sc(Cl)c3C(=O)[C@H]2O1 | 4.98 µM | 41.6 | 13.9 | 42.3 | 37 | 37 | > 69 | 46.5 | 7.71 | 38.3 | – | – | – | – | – | – | – | – | – | – |
| CC(C)(C)C1CC[C@H]2c3c([nH]c4ccc(Br)cc34)[C@H]3C(=O)N(c4ccccc4)C(=O)[C@H]3[C@H]2C1 (stereo partly drawn) | 35.1 µM | 78.7 | > 100 | 81.8 | 38.9 | 95.1 | > 100 | 66.9 | > 100 | > 100 | – | – | – | – | – | – | – | – | – | – |
| COC1=CC(=O)N(C(=O)C(OC(=O)C2CCCN2C(=O)C2CCCN2C(=O)C(C(C)C)N(C)C(=O)C(NC(=O)C(C(C)C)N(C)C)C(C)C)C(C)C)C1Cc1ccccc1 (stereo not drawn) (ξNMe2Val-V[NMeV]PP-X16; configuration not given here) | 0.00123 µM and < 0.0004 µM | – | > 4 | 1.54 | 0.519 | 0.31 | – | 0.118 | > 4 | > 4 | < 0.0004 | 0.000954 | < 0.0004 | 0.000406 | < 0.0004 | < 0.0004 | < 0.0004 | 0.00267 | < 0.0004 | > 4 |
| CS(=O)(=O)NNS(=O)(=O)c1ccc(Br)cc1 | > 100 µM | > 100 | > 100 | > 100 | > 100 | > 100 | > 100 | > 100 | > 100 | > 100 | – | – | – | – | – | – | – | – | – | – |
| COc1ccc(NC(=S)NN=C(C)c2cccc(C(C)=NNC(=S)Nc3ccc(OC)cc3)n2)cc1 | > 100 µM | > 100 | > 100 | > 100 | > 100 | > 100 | > 100 | > 100 | > 100 | > 100 | – | – | – | – | – | – | – | – | – | – |
| O=c1[nH]cnc2c1nnn2CCCn1nnc2c(=O)[nH]cnc21 | > 100 µM | > 100 | > 100 | > 100 | > 100 | > 100 | > 100 | > 100 | > 100 | > 100 | – | – | – | – | – | – | – | – | – | – |
| CC(=O)N[C@@H](Cc1ccc(O)cn1)C(=O)NCc1cccc(F)c1 | > 100 µM | > 100 | > 100 | > 100 | > 100 | > 100 | > 100 | > 100 | > 100 | > 100 | – | – | – | – | – | – | – | – | – | – |
| COC(=O)/C(=C/c1ccc(OC)cc1)C(C(=O)O)=C(C)C | > 100 µM | > 100 | > 100 | > 100 | > 100 | > 100 | > 100 | > 100 | > 100 | > 100 | – | – | – | – | – | – | – | – | – | – |
| COCCC(NC(=O)C(CC(C)C)NC(=O)OC(C)(C)C)C(N)=O (stereo not drawn) (Boc-Leu-[hSer](Me)-NH2; configuration not given here) | > 100 µM | > 100 | > 100 | > 100 | > 100 | > 100 | > 100 | > 100 | > 100 | > 100 | – | – | – | – | – | – | – | – | – | – |
| C/C(=N\Nc1nc2cc(C)ccc2s1)c1ccccn1 | 0.699 µM | 10.3 | 3.68 | 9.11 | 52.8 | 9.14 | 4.35 | 21.2 | > 20.2 | 11.1 | – | – | – | – | – | – | – | – | – | – |
| COc1ccc(C2CC(c3cc4c(C)c(C(=O)c5ccccc5)oc4cc3O)=Nc3ccccc3S2)cc1OC (stereo not drawn) | > 100 µM | > 73.7 | > 100 | > 100 | > 100 | > 100 | > 100 | > 85.8 | > 100 | > 100 | – | – | – | – | – | – | – | – | – | – |
| CN(C)CC1CCC/C(=C\c2ccc(N(C)C)cc2)C1=O (stereo not drawn) | > 100 µM | 9.79 | 3.16 | 64 | 28.5 | 3.57 | 31.4 | 31.9 | 3.29 | 22.2 | – | – | – | – | – | – | – | – | – | – |
| COc1cc2c(cc1O)[C@H](C)C(c1ccc(Cl)cc1)O2 (stereo partly drawn) | 35.6 µM | 40.4 | 29.4 | 70 | 33.4 | 72.6 | 31.8 | > 100 | 38 | 79.4 | – | – | – | – | – | – | – | – | – | – |
| COc1c(C2(c3ccc(F)cc3)SCCCS2)c(=O)c1=O | > 100 µM | > 100 | > 100 | > 100 | > 100 | > 100 | > 100 | > 100 | > 100 | > 100 | – | – | – | – | – | – | – | – | – | – |
